What was measured:
μ-opioid receptor [1] = biological target: T1, μ-opioid receptor (Homo sapiens, UniProt P35372); test: μ-opioid receptor [35S]GTPγS functional assay, U-2 OS cells; assay type: biochemical; set-up: expressed in transfected cells; host or cells: U-2 OS; conditions: U-2 OS cells; for EC50: read-out: GTPγS μ EC50; for Emax: relative to DAMGO, read-out: GTPγS μ Emax
μ-opioid receptor [2] = biological target: T1, μ-opioid receptor; test: μ-opioid receptor [35S]GTPγS functional assay, HEK-293 or CHO cells; conditions: for Emax: read-out: GTPγS μ Emax
κ opioid receptor [3] = biological target: T2, κ opioid receptor (Homo sapiens, UniProt P41145); test: κ-opioid receptor [35S]GTPγS functional assay, HEK-293 or CHO cells; assay type: biochemical; set-up: expressed in transfected cells; host or cells: U-2 OS (in-house membranes); conditions: HEK-293 or CHO cells; for EC50: read-out: GTPγS κ EC50; for Emax: relative to U69,593
Procedure: Membranes from recombinant HEK-293 cells, CHO or U-2 OS cells expressing the recombinant human κ opioid receptor (κ) were prepared by lysing cells in ice cold hypotonic buffer (2.5 mM MgCl2, 50 mM HEPES, pH 7.4) (10 mL/10 cm dish) followed by homogenization with a tissue grinder/Teflon pestle. Membranes from a cell line naturally expressing kappa opioid receptors can also be used. Membranes were collected by centrifugation at 30,000×g for 15 min at 4° C. and pellets were resuspended in hypotonic buffer to a final concentration of 1-3 mg/mL. Protein concentrations were determined using the BioRad protein assay reagent with bovine serum albumen as standard. Aliquots of κ receptor membranes were stored at −80° C.
Plates were incubated for 30 min at a temperature of about 25° C. with shaking.

κ opioid receptor [4] = biological target: T2, κ opioid receptor; test: κ-opioid receptor [35S]GTPγS functional assay, U-2 OS cells; assay type: biochemical; set-up: expressed in transfected cells; host or cells: U-2 OS (in-house membranes); conditions: U-2 OS cells
κ opioid receptor [5] = biological target: T2, κ opioid receptor; test: biochemical; assay type: binding; set-up: expressed in transfected cells; host or cells: HEK 293 (in-house membrane prep); conditions: HEK-293 or CHO cells

T1 sequence (P35372 whole entry, species assumed): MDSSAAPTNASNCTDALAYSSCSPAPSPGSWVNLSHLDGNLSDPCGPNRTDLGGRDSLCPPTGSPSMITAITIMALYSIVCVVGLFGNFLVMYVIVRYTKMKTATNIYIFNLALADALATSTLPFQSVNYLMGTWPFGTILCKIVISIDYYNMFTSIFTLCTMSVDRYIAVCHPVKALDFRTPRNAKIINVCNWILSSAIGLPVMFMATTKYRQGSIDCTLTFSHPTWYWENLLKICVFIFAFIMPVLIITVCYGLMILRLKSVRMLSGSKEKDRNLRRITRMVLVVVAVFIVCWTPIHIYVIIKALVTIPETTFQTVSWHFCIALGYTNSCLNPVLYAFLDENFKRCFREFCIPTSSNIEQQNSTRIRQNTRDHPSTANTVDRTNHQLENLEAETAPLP
T2 sequence (P41145 whole entry): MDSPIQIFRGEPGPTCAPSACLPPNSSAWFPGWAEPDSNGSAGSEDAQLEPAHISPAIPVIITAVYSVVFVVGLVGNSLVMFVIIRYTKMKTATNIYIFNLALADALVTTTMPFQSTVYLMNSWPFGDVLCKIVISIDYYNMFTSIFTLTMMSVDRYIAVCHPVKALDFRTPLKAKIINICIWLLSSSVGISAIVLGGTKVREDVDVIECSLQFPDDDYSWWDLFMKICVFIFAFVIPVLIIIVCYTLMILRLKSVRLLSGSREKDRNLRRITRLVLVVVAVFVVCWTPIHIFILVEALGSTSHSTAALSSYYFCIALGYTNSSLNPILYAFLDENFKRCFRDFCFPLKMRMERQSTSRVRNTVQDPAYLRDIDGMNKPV

C[C@]12CCN(CC3CC3)[C@H](Cc3ccc(O)cc31)[C@H]2NS(=O)(=O)c1cccc(C(F)(F)F)c1 [Compound 128, N-((2R,6S,11S)-3-(cyclopropylmethyl)-8-hydroxy-6-methyl-1,2,3,4,5,6-hexahydro-2,6-methanobenzo[d]azocin-11-yl)-3-(trifluoromethyl)benzenesulfonamide]
EC50 (μ-opioid receptor [1]): 0.00018 ± 6.9e-05 µM | Emax (μ-opioid receptor [1]): 47.8 ± 1.25% | EC50 (μ-opioid receptor [2]): 0.00767 ± 0.00079 µM | Emax (μ-opioid receptor [2]): 53.5 ± 3.52% | EC50 (κ opioid receptor [3]): 0.00035 ± 0.00015 µM | Emax (κ opioid receptor [3]): 40.3 ± 2.19% | EC50 (κ opioid receptor [4]; read-out: GTPγS κ EC50): 0.00074 ± 0.00013 µM | Emax (κ opioid receptor [4]; relative to U69,593, read-out: GTPγS κ Emax): 90.7 ± 1.45%

CN1CC[C@]2(C)c3cc(O)ccc3CC1C2N(C)C(=O)/C=C/c1ccoc1 (stereo in doubt) [Compound 24, (E)-3-(furan-3-yl)-N-((2R,6R,11S)-8-hydroxy-3,6-dimethyl-1,2,3,4,5,6-hexahydro-2,6-methanobenzo[d]azocin-11-yl)-N-methylacrylamide]
EC50 (κ opioid receptor [3]): 0.178 ± 0.0251 µM | Emax (κ opioid receptor [3]): 30.7 ± 2.6% | Ki (κ opioid receptor [5]): 0.00117 ± 9e-05 µM

COc1ccc2c(c1)C1(C)CCN(CCC(C(=O)N(C)C)(c3ccccc3)c3ccccc3)C(C2)C1(O)O (stereo not drawn) [Compound 7, 4-(11,11-dihydroxy-8-methoxy-6-methyl-1,2,5,6-tetrahydro-2,6-methanobenzo[d]azocin-3(4H)-yl)-N,N-dimethyl-2,2-diphenylbutanamide]
EC50 (κ opioid receptor [3]; bound in μM): > 20 µM | Emax (κ opioid receptor [3]): -0.33 ± 0.67% | Ki (κ opioid receptor [5]): 0.279 ± 0.0398 µM

COc1ccc2c(c1)[C@@]1(C)CCN(C)C(C2)[C@@H]1c1cccc(-c2nnn[nH]2)c1 [Compound 42, (6S,11R)-11-(3-(1H-tetrazol-5-yl)phenyl)-8-methoxy-3,6-dimethyl-1,2,3,4,5,6-hexahydro-2,6-methanobenzo[d]azocine]
EC50 (μ-opioid receptor [2]): > 20 µM | Ki (κ opioid receptor [5]; bound in μM): > 20 µM

CN1CC[C@]2(C)c3cc(O)ccc3CC1C2Nc1ccc(CCS(N)(=O)=O)cc1 (stereo in doubt) [Compound 58, 2-(4-(((2R,6R,11S)-8-hydroxy-3,6-dimethyl-1,2,3,4,5,6-hexahydro-2,6-methanobenzo[d]azocin-11-yl)amino)phenyl)ethanesulfonamide]
EC50 (μ-opioid receptor [2]): 0.751 ± 0.0433 µM | Emax (μ-opioid receptor [2]): 110 ± 7.55% | Ki (κ opioid receptor [5]): 0.336 ± 0.0875 µM

COc1ccc2c(c1)[C@@]1(C)CCN(C)C(C2)[C@@]1(O)c1cccc(C(N)=O)c1 [Compound 67, 3-((6R,11R)-11-hydroxy-8-methoxy-3,6-dimethyl-1,2,3,4,5,6-hexahydro-2,6-methanobenzo[d]azocin-11-yl)benzamide]
EC50 (μ-opioid receptor [2]): > 20 µM | Ki (κ opioid receptor [5]; bound in μM): > 20 µM

CN1CC[C@]2(C)c3cc(O)ccc3C[C@@H]1[C@@H]2N(C)C(=O)c1cccc(C(=O)O)c1 [Compound 48, 3-(((2R,6R,11R)-8-hydroxy-3,6-dimethyl-1,2,3,4,5,6-hexahydro-2,6-methanobenzo[d]azocin-11-yl)(methyl)carbamoyl)benzoic acid]
EC50 (μ-opioid receptor [2]): 5.19 ± 0.549 µM | Emax (μ-opioid receptor [2]): 26 ± 4.16% | Ki (κ opioid receptor [5]; bound in μM): > 20 µM

CN1CC[C@]2(C)c3cc(O)ccc3C[C@@H]1[C@H]2N(C)C(=O)c1cccc(C(=O)O)c1 [Compound 47, 3-(((2R,6R,11S)-8-hydroxy-3,6-dimethyl-1,2,3,4,5,6-hexahydro-2,6-methanobenzo[d]azocin-11-yl)(methyl)carbamoyl)benzoic acid]
EC50 (μ-opioid receptor [2]): 8.89 ± 0.655 µM | Emax (μ-opioid receptor [2]): 58.7 ± 5.24% | Ki (κ opioid receptor [5]): 20 µM

COc1ccc2c(c1)[C@@]1(C)CCN(C)C(C2)[C@@H]1c1cccc(OCc2ccccc2)c1 [Compound 61, (6S,11R)-11-(3-(benzyloxy)phenyl)-8-methoxy-3,6-dimethyl-1,2,3,4,5,6-hexahydro-2,6-methanobenzo[d]azocine]
EC50 (μ-opioid receptor [2]): 5.76 ± 1.55 µM | Emax (μ-opioid receptor [2]): 26.7 ± 0.88% | Ki (κ opioid receptor [5]): 2.77 ± 0.85 µM

COc1ccc2c(c1)[C@@]1(C)CCN(C)C(C2)[C@@]1(O)c1cccc(-c2nnn[nH]2)c1 [Compound 65, (6R,11R)-11-(3-(1H-tetrazol-5-yl)phenyl)-8-methoxy-3,6-dimethyl-1,2,3,4,5,6-hexahydro-2,6-methanobenzo[d]azocin-11-ol]
EC50 (μ-opioid receptor [2]): 5.06 ± 1.15 µM | Emax (μ-opioid receptor [2]): 21.7 ± 2.85% | Ki (κ opioid receptor [5]; bound in μM): > 20 µM

CN1CC[C@]2(C)c3cc(O)ccc3CC1C2N(C)C(=O)NCCC(=O)O (stereo in doubt) [Compound 68, 3-(3-((2R,6R,11S)-8-hydroxy-3,6-dimethyl-1,2,3,4,5,6-hexahydro-2,6-methanobenzo[d]azocin-11-yl)-3-methylureido)propanoic acid]
EC50 (μ-opioid receptor [2]): 0.55 ± 0.0316 µM | Emax (μ-opioid receptor [2]): 98 ± 1.73% | Ki (κ opioid receptor [5]): 0.799 ± 0.0982 µM

CN1CC[C@]2(C)c3cc(O)ccc3CC1[C@@H]2COc1cccc(C(=O)O)c1 [Compound 40, 3-(((6S,11R)-8-hydroxy-3,6-dimethyl-1,2,3,4,5,6-hexahydro-2,6-methanobenzo[d]azocin-11-yl)methoxy)benzoic acid]
EC50 (μ-opioid receptor [2]): 3.07 ± 0.469 µM | Emax (μ-opioid receptor [2]): 25.7 ± 3.76% | Ki (κ opioid receptor [5]): 3.12 ± 0.483 µM

COc1ccc2c(c1)[C@@]1(C)CCN(C)C(C2)C1N1CCCC1 (stereo partly drawn) [Compound 69, (6R)-8-methoxy-3,6-dimethyl-11-(pyrrolidin-1-yl)-1,2,3,4,5,6-hexahydro-2,6-methanobenzo[d]azocine]
EC50 (μ-opioid receptor [2]): > 20 µM | Emax (μ-opioid receptor [2]): 24.3 ± 2.96% | Ki (κ opioid receptor [5]): 19.8 µM

COC(=O)c1cccc([C@]2(O)C3Cc4ccc(OC)cc4[C@@]2(C)CCN3C)c1 [Compound 62, methyl 3-((6R,11R)-11-hydroxy-8-methoxy-3,6-dimethyl-1,2,3,4,5,6-hexahydro-2,6-methanobenzo[d]azocin-11-yl)benzoate]
EC50 (μ-opioid receptor [2]): 7.45 ± 0.47 µM | Emax (μ-opioid receptor [2]): 24 ± 2.97% | Ki (κ opioid receptor [5]; bound in μM): > 20 µM

CN1CC[C@]2(C)c3cc(O)ccc3CC1[C@@H]2COc1cncc(C(=O)O)c1 [Compound 34, 5-(((6S,11R)-8-hydroxy-3,6-dimethyl-1,2,3,4,5,6-hexahydro-2,6-methanobenzo[d]azocin-11-yl)methoxy)nicotinic acid]
EC50 (μ-opioid receptor [2]): 3.64 ± 0.373 µM | Emax (μ-opioid receptor [2]): 16 ± 3.46% | Ki (κ opioid receptor [5]): 5.99 ± 0.604 µM

COc1ccc2c(c1)[C@@]1(C)CCN(CCC(C(=O)N(C)C)(c3ccccc3)c3ccccc3)C(C2)[C@H]1O [Compound 17, 4-((6R,11S)-11-hydroxy-8-methoxy-6-methyl-1,2,5,6-tetrahydro-2,6-methanobenzo[d]azocin-3(4H)-yl)-N,N-dimethyl-2,2-diphenylbutanamide]
EC50 (κ opioid receptor [3]; bound in μM): > 20 µM | Ki (κ opioid receptor [5]): 0.0899 ± 0.0147 µM

COc1ccc2c(c1)[C@@]1(C)CCN(C)C(C2)[C@]1(O)c1cccc(C(=O)O)c1 [Compound 71, 3-((6R,11S)-11-hydroxy-8-methoxy-3,6-dimethyl-1,2,3,4,5,6-hexahydro-2,6-methanobenzo[d]azocin-11-yl)benzoic acid]
EC50 (μ-opioid receptor [2]): 13 ± 1.14 µM | Emax (μ-opioid receptor [2]): 23 ± 4.58% | Ki (κ opioid receptor [5]; bound in μM): > 20 µM

CN1CC[C@]2(C)c3cc(O)ccc3CC1C2N(C)C(=O)Nc1ccc(C(=O)O)cc1 (stereo in doubt) [Compound 46, 4-(3-((2R,6R,11R)-8-hydroxy-3,6-dimethyl-1,2,3,4,5,6-hexahydro-2,6-methanobenzo[d]azocin-11-yl)-3-methylureido)benzoic acid]
EC50 (μ-opioid receptor [2]): 13.4 ± 2.99 µM | Emax (μ-opioid receptor [2]): 36.7 ± 3.18% | Ki (κ opioid receptor [5]; bound in μM): > 20 µM

COc1ccc2c(c1)[C@@]1(C)CCN(C)C(C2)[C@@H]1N(C)C(=O)/C=C/c1ccoc1 [Compound 16, (E)-3-(furan-3-yl)-N-((6R,11R)-8-methoxy-3,6-dimethyl-1,2,3,4,5,6-hexahydro-2,6-methanobenzo[d]azocin-11-yl)-N-methylacrylamide]
EC50 (κ opioid receptor [3]): 1.05 ± 0.262 µM | Emax (κ opioid receptor [3]): 15 ± 1.53% | Ki (κ opioid receptor [5]): 0.186 ± 0.034 µM

CN1CC[C@]2(C)c3cc(O)ccc3CC1[C@@H]2CC(=O)Nc1ccc(C(=O)O)cc1 [Compound 32, 4-(2-((6S,11R)-8-hydroxy-3,6-dimethyl-1,2,3,4,5,6-hexahydro-2,6-methanobenzo[d]azocin-11-yl)acetamido)benzoic acid]
EC50 (μ-opioid receptor [1]): 0.233 ± 0.0582 µM | Emax (μ-opioid receptor [1]): 39.8 ± 2.46% | EC50 (μ-opioid receptor [2]): 0.336 ± 0.0928 µM | Emax (μ-opioid receptor [2]): 23 ± 1.53% | Ki (κ opioid receptor [5]): 12.7 ± 2.09 µM

COc1ccc2c(c1)[C@@]1(C)CCN(C)C(C2)[C@@H]1c1cccc(C(=O)O)c1 [Compound 38, 3-((6S,11R)-8-methoxy-3,6-dimethyl-1,2,3,4,5,6-hexahydro-2,6-methanobenzo[d]azocin-11-yl)benzoic acid]
EC50 (μ-opioid receptor [2]): > 20 µM | Ki (κ opioid receptor [5]): 17.4 ± 5.98 µM

COc1ccc2c(c1)[C@@]1(C)CCN(CC3CC3)[C@H](C2)[C@H]1N(C)CC(=O)O [Compound 73, 2-(((2R,6R,11S)-3-(cyclopropylmethyl)-8-methoxy-6-methyl-1,2,3,4,5,6-hexahydro-2,6-methanobenzo[d]azocin-11-yl)(methyl)amino)acetic acid]
EC50 (μ-opioid receptor [2]): 18.1 ± 2.72 µM | Emax (μ-opioid receptor [2]): 25 ± 2.52% | Ki (κ opioid receptor [5]; bound in μM): > 20 µM

Reference: US10138207B2, “Benzomorphan analogs and the use thereof” (priority 2012, dated 2018)
